A short description of data set [1]: Therapeutic index, ratio of CC50 for human TZM-bl cells to IC50 for HIV1 NL4.3 infected in human TZM-bl cells. It counts as cell-based. Particulars: HIV1 NL4.3 infected TZM-bl cells, read-out: Ratio CC50/IC50.
Data set [2] has as its system Human immunodeficiency virus 1. Kind of data set: Antiviral activity against HIV1 NL4.3 infected in human TZM-bl cells expressing CXCR4-tropic incubated for 1 hr prior to infection measured after 48 hrs by luciferase reporter gene assay. It counts as functional, organism-based. Particulars: Human immunodeficiency virus 1, NL4.3, TZM-bl. (In general: In a reporter assay the amount or activity of a reporter protein is the signal.)

Data set [3] in a line: Cytotoxicity against human TZM-bl cells assessed as cell viability after 48 hrs by MTT assay. Format: cell-based. Conditions: for CC50 at 48 h: TZM-bl cells.
Data set [4] has as its system Human immunodeficiency virus 1. Put plainly: Antiviral activity against HIV1 NL4.3 infected in human TZM-bl cells expressing CXCR4-tropic at 50 uM incubated for 1 hr prior to infection measured after 48 hrs by luciferase reporter gene assay. Format: functional, organism-based.
The target of data set [5] is Human immunodeficiency virus type 1 integrase (Human immunodeficiency virus 1) (UniProt Q7ZJM1). Put plainly: (§1) Inhibition of HIV1 integrase.
Human immunodeficiency virus type 1 integrase (Human immunodeficiency virus 1), sequence (Q7ZJM1 as listed by the source): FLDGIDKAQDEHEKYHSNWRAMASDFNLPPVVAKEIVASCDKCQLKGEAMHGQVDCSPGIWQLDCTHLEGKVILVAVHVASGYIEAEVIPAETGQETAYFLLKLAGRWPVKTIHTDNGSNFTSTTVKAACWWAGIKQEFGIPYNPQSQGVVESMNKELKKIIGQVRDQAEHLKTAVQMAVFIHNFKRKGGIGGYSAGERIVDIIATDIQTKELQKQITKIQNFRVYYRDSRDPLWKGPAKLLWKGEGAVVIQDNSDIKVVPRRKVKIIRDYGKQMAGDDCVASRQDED
Data set [6] deals with Human immunodeficiency virus type 1 integrase (Human immunodeficiency virus 1, UniProt Q7ZJM1). Described as §1.
Human immunodeficiency virus type 1 integrase, sequence (Q7ZJM1 whole entry): as the sequence (Q7ZJM1 as listed by the source) above

As usually defined, the CC50 is the concentration that lowers cell viability or growth by half.

Calls of active or inactive are those of the source. No cut-off for these calls is given here.

As for `COC(=O)C12C=CC(=O)C(OC(C)=O)=C1CC=C(C)C2CC=C(C)C` (stereo not drawn), the selectivity ratio in data set [1] was determined as 18. The IC50 in data set [2] (read-out: IC50) is 36.7 µM; in data set [2] (read-out: pIC50 (converted)) it was 36.3 µM. Also, the CC50 at 48 h in data set [3] stood at 677 µM.

Regarding `COC(=O)C12C=CC(=O)C(O)=C1CC=C(C)C2C/C=C(\C)CO` (stereo not drawn), the selectivity ratio in data set [1] came to 13. The IC50 in data set [2] (read-out: IC50) is 72.7 µM; in data set [2] (read-out: pIC50 (converted)), 72.4 µM. Further, in data set [3], the CC50 at 48 h turned out to be 928 µM.

With `COC(=O)C12C=CC(=O)C(O)=C1CC(CC/C=C(\C)CO)=CC2` (stereo not drawn), in data set [1], the selectivity ratio is 1. The IC50 in data set [2] (read-out: IC50) is 285 µM; in data set [2] (read-out: pIC50 (converted)), 282 µM. Also, the CC50 at 48 h in data set [3] is 383 µM.

Consider `CC(C)=CCCC1=CCc2c(O)ccc(O)c2C1`, for which the result in data set [4] was inactive. For the same compound, in data set [3] (tzm, 48 h), the CC50 result is “Not Active”.

Turning to `CC(C)=CCC1C(C)=CCc2c1ccc(O)c2O` (stereo not drawn), in data set [1], the selectivity ratio amounted to 46. The IC50 in data set [2] (read-out: IC50) was 4.6 µM; in data set [2] (read-out: pIC50 (converted)) it was 4.57 µM; in data set [6], 11.1 µM. Moreover, the CC50 at 48 h in data set [3] turned out to be 211 µM. Besides, the inhibition result in data set [5] was “Dose-dependent effect”.

In the case of `Cc1nnc(C(=O)NC(C)(C)c2nc(C(=O)NCc3ccc(F)cc3)c(O)c(=O)n2C)o1`, the values for the IC50 in data set [2] (read-out: IC50) and in data set [2] (read-out: pIC50 (converted)) were 0.5 µM and 0.501 µM, respectively. Moreover, the half-maximal cytotoxic concentration (CC50) at 48 h in data set [3] amounted to 856 µM.

On to `COC(=O)C12C=CC(=O)C(O)=C1CC(CC/C=C(\C)C=O)=CC2` (stereo not drawn), for which the selectivity ratio in data set [1] was 4. Also, the IC50 in data set [2] (read-out: IC50) is 172 µM; in data set [2] (read-out: pIC50 (converted)) it was 170 µM. In data set [3], the CC50 at 48 h stood at 625 µM.

On to `COC(=O)C12C=CC(=O)C(O)=C1CC=C(C)C2C/C=C(\C)C=O` (stereo not drawn), for which, in data set [1], the selectivity ratio was determined as 10. Moreover, the results for the IC50 in data set [2] (read-out: IC50) and in data set [2] (read-out: pIC50 (converted)) were 60.7 µM and 60.3 µM, respectively. Besides, in data set [3], the CC50 at 48 h was found to be 627 µM.

Take `COC(=O)C12C=CC(=O)C(O)=C1CC=C(C)C2CC=C(C)C` (stereo not drawn): the selectivity ratio in data set [1] amounted to 11. Further, the IC50 is 5 µM in data set [2] (read-out: IC50) and 5.01 µM in data set [2] (read-out: pIC50 (converted)). Also, the CC50 at 48 h in data set [3] was 56.4 µM.

As to `C=C(C=O)[C@@H]1C[C@@]2(C)C(=CC1=O)[C@H](OC(=O)/C(C)=C/C(C)CCCC)CC[C@@H]2C(=O)O` (stereo partly drawn), the IC50 in data set [2] (read-out: IC50) and in data set [2] (read-out: pIC50 (converted)) was 10 µM each time.

For the compound `COC(=O)C12C=CC(=O)C(O)=C1CC(CCC=C(C)C)=CC2` (stereo not drawn), in data set [1], the selectivity ratio was 4. The IC50 was 171 µM in data set [2] (read-out: IC50) and 170 µM in data set [2] (read-out: pIC50 (converted)). Besides, the CC50 at 48 h in data set [3] worked out at 693 µM.

On to `CC(C)=CCC1C(C)=CCc2c(O)ccc(O)c21` (stereo not drawn), for which the selectivity ratio in data set [1] worked out at 11. Further, the IC50 in data set [2] (read-out: IC50) was 12.4 µM; in data set [2] (read-out: pIC50 (converted)) it was 12.3 µM; in data set [6], 11.5 µM. Moreover, in data set [3], the CC50 at 48 h was 140 µM. Further, in data set [5], the inhibition entry is “Dose-dependent effect”.

As to `CC(C)=CCCC1=CCc2ccc(O)c(O)c2C1`, the selectivity ratio in data set [1] was 11. Further, the IC50 in data set [2] (read-out: IC50) is 12.3 µM; in data set [2] (read-out: pIC50 (converted)) it was 12.3 µM; in data set [6], 13.4 µM. Further, the CC50 at 48 h in data set [3] amounted to 138 µM. Moreover, in data set [5], the inhibition result is “Dose-dependent effect”.

The values above are taken from ChEMBL document CHEMBL3098125, “Synthesis, anti-HIV activity, integrase enzyme inhibition and molecular modeling of catechol, hydroquinone and quinol labdane analogs” (Bioorg Med Chem Lett, 2014).
